Values joined by “and” are separate entries in the source; they are usually repeats but may differ in a detail not shown here. Identical values can stand only once.
How the values were obtained:
HEK293 cells = test: MTT cytotoxicity assay, HEK293; format: cell-based, human; details: 48 h, concentration range 0–200 μM
Description: (§1) Cell cultures of H1299 and A549 cells were respectively maintained in RPMI-1640 and F12K cell growth medium, while HEK293 cells were maintained in DMEM (having 10% heat-inactivated FBS and 1% antibiotic-antimycotic solution) in a humidified CO2 incubator (5% CO2, 37 °C). These lung cancer cell lines were selected based on previous reports related to PDK3 [49]. Hordenine was evaluated for cell growth inhibition potential using the MTT assay as described. Briefly, the selected cells were plated in a 96-well culture plate (6000–7000 cells/well), and after 24 h cells were incubated with hordenine (0–200 μM) for 48 h. Following 48 h incubation of cells with hordenine, 25 µL MTT (from 5 mg/mL stock) was added and incubated for 4–5 h at 37 °C in a CO2 incubator. The resultant formazan was dissolved in 100 µL of DMSO and the absorbance was measured at 570 nm using a multiplate ELISA reader (BioRad). The percentage of cell viabilities was estimated using absorbance data and plotted as a function of hordenine concentration. Respective DMSO treatment was taken as vehicle control and subtracted from corresponding hordenine treatment groups, whereas for anticancer studies paclitaxel has been taken as a positive control.

PDK3 [1] = biological target: T1, PDK3 (Homo sapiens, UniProt Q15120); test: Fluorescence binding (quenching, modified Stern-Volmer); details: PDK3 4 μM, modified Stern-Volmer equation; read-out: Binding constant (K) from fluorescence studies (converted)
T1 construct: made in house
T1 sequence (Q15120 whole entry): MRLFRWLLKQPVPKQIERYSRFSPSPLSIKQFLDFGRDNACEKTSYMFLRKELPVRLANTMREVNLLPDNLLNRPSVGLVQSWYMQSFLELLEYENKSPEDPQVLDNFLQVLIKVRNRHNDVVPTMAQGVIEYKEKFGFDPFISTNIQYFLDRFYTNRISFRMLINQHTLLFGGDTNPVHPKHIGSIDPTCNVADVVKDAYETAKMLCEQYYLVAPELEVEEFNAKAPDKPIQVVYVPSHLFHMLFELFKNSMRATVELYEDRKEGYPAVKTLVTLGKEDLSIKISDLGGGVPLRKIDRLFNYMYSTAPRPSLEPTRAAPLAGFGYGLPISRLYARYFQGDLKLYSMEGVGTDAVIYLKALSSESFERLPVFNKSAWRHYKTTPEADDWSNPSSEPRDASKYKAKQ
Description: The binding affinity of ligands to PDK3 was analyzed by monitoring changes in the fluorescence emission intensity of protein [33]. Fluorescence measurements were carried out on the Jasco spectrofluorimeter (FP-6200, Japan). The experimental parameters were, λexc as 280 nm and λem in the range of 300–400 nm with slit width: 10 nm and medium sensitivity. All the measurements were carried out in triplicates and blank subtracted spectra were reported. The observed fluorescence values were corrected for the inner filter effect. Protein was titrated with an increasing concentration of ligands and each titration of protein. A decrease in the fluorescence intensity was mathematically evaluated using the modified Stern-Volmer equation [35] to estimate the binding parameters for hordenine-PDK3 interaction.
To measure the actual binding affinity of hordenine to PDK3, fluorescence binding studies were performed as described. […] The decrease in fluorescence intensity was mathematically analyzed using a double log relation (modified Stern−Volmer equation) to find the value of binding constant (K).

A549 cells = test: MTT cell viability assay, A549; format: cell-based; details: Homo sapiens, 48 h, 0–200 μM, read-out: IC50, growth inhibition of A549 cells
Description: as §1

H1299 cells = test: MTT cell viability assay, H1299; format: cell-based; details: Homo sapiens, NCI-H1299, 48 h, 0–200 μM, read-out: IC50, growth inhibition of H1299 cells
Description: as §1

PDK3 [2] = biological target: T1, PDK3; test: Isothermal titration calorimetry; format: binding; details: ITC 25 °C
Description: ITC measurements were carried out at 25 °C on a VP-ITC microcalorimeter from MicroCal, Inc (GE, MicroCal, Northampton, MA, USA). The purified protein was extensively dialyzed and degassed before use to avoid the bubble problem. DMSO was added in an equal amount to the protein solution (1% v/v) to prevent signal stability problems during ITC measurements. The first injection was a false one (2 μL) and then successive injections of 10 μL followed by the initial false injection. The sample cell contained PDK3 while the syringe was filled with the hordenine. Data analysis was carried out using the attached MicroCal Origin 8.0. The values (Ka, ΔH, ΔS) were calculated after curve fitting as described in our previous communications.
Thermodynamic parameters associated with the interaction of hordenine to PDK3 were measured by ITC as described. […] Various studies report different values of thermodynamic parameters obtained from fluorescence spectroscopy and ITC and this is because ITC measures a global change in the thermodynamic properties while fluorescence spectroscopy takes into account only the local changes around the fluorophore (Trp214). In the upper panel, raw data with negative heat pulses is shown which confirms exothermic binding. Binding curves found after subtraction of dilution heat of both ligands and protein are depicted in the bottom section. The obtained ITC isotherm advocates the spontaneous binding of hordenine with PDK3. The results presented were obtained from four site model fitting and thermodynamic parameters obtained for this interaction are presented in Table 1.

PDK3 [3] = biological target: T1, PDK3; test: Enzyme inhibition assay (ATPase, malachite green); format: biochemical; details: ATP 200 µM, PDK3 4 µM, 25 °C, 1 h; AAT Bioquest calculator
Description: Following our published protocols, an enzyme inhibition assay was carried out. Freshly prepared ATP (200 µM) was added to PDK3 (4 µM) and final reaction mixture of 100 μL was incubated at 25 °C for 1 h. Malachite green (200 μL) was further added to the reaction mixture to stop the reaction followed by incubation of samples at room temperature for 20–25 min for the development of color. From the final reaction mixture, 100 μL was transferred to a 96-well plate in triplicate to measure spectrophotometrically at 620 nm.
To further validate our fluorescence-based binding studies, an enzyme inhibition assay was carried out with increasing concentrations of hordenine to check the kinase inhibitory potential. The kinase activity was quantified and plotted as percent inhibition. The kinase activity of PDK3 alone was taken as 100% for reference. It is clear from Figure 5 that with an increasing concentration of hordenine (0–13.75 µM), there was a dose-dependent decrease in PDK3 activity.

`CN(C)CCc1ccc(O)cc1` [hordenine, Hordenine] was tested, and the “Growth inhibition / cytotoxicity on HEK293 cells” value (HEK293 cells) was “did not inhibit the growth of HEK293 cells”, the Kd (PDK3 [1]) was 1 µM and 2 µM and the IC50 (A549 cells) was 15 ± 2.13 µM. The IC50 (H1299 cells) was 21.3 ± 1.99 µM, the Kd (PDK3 [2]; 500 µM hordenine into 15 µM PDK3, four site model, site 1, read-out: Ka1 (Association Constant)) was 51.3 µM and the “∆H1 (Enthalpy Change)” value (PDK3 [2]; four site model, site 1) was “∆H1 = 4151 ± 1.2 × 10^3 cal/mol”. The “∆S1” value (PDK3 [2]; four site model, site 1) was “∆S1 = 33.5 cal/mol/deg”, the “∆H2 (Enthalpy Change)” value (PDK3 [2]; four site model, site 2) was “∆H2 = −5.11 × 10^4 ± 4.18 × 10^3 cal/mol” and the “∆S2” value (PDK3 [2]; four site model, site 2) was “∆S2 = −149 cal/mol/deg”. The Kd (PDK3 [2]; four site model, site 2, read-out: Ka2 (Association Constant)) was 10.8 µM, the “∆H3 (Enthalpy Change)” value (PDK3 [2]; four site model, site 3) was “∆H3 = 3.75 × 10^4 ± 5.20 × 10^3 cal/mol” and the “∆S3” value (PDK3 [2]; four site model, site 3) was “∆S3 = 147 cal/mol/deg”. For the same compound, the Kd (PDK3 [2]; four site model, site 3, read-out: Ka3 (Association Constant)) was 19.6 µM, the “∆H4 (Enthalpy Change)” value (PDK3 [2]; four site model, site 4) was “∆H4 = −2.33 × 10^5 ± 1.03 × 10^4 cal/mol” and the “∆S4” value (PDK3 [2]; four site model, site 4) was “∆S4 = −767 cal/mol/deg”. It also gave a Kd (PDK3 [2]; four site model, site 4 (printed Ka3), read-out: Ka3 (Association Constant), fourth line of the table) of 400 µM and an IC50 (PDK3 [3]) of 5.4 µM.
